ChEMBL document CHEMBL1908105, “UDP-glucuronosyltransferases and clinical drug-drug interactions” (Pharmacol Ther, 2005)
“And” between values parts separate entries of the source, which are not always exact repeats. Equal entries are not always repeated.

Legend:
[1] = target: T1, UDP-glucuronosyltransferase 1A6 (Homo sapiens, UniProt P19224); assay: Drug glucuronidation reaction catalyzed by human recombinant UGT1A6
[2] = target: T2, UDP-glucuronosyltransferase 1A1 (Homo sapiens, UniProt P22309); assay: Inhibition of 4-methylumbelliferone glucuronidation by human recombinant UGT1A1
T2 sequence (P22309 whole entry): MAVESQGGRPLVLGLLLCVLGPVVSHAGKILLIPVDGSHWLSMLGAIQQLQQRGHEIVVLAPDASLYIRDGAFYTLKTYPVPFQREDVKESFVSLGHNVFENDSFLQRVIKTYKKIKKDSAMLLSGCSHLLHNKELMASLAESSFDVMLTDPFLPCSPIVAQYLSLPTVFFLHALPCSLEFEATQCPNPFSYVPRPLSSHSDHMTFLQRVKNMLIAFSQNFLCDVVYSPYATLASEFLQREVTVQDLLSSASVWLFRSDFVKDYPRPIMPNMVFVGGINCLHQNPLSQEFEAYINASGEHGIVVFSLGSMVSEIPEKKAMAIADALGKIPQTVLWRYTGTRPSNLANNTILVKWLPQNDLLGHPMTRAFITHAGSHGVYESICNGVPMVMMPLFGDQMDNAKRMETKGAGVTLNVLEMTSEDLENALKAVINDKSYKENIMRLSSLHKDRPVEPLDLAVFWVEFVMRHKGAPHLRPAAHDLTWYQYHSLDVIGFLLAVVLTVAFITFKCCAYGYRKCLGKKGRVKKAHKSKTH

[3] = target: UDP-glucuronosyltransferase 1A10 (Homo sapiens, UniProt Q9HAW8); assay: Inhibition of 4-methylumbelliferone glucuronidation by human recombinant UGT1A10
[4] = target: T1, UDP-glucuronosyltransferase 1A6; assay: Inhibition of 4-methylumbelliferone glucuronidation by human recombinant UGT1A6
[5] = target: UDP-glucuronosyltransferase 1A7 (Homo sapiens, UniProt Q9HAW7); assay: Inhibition of 4-methylumbelliferone glucuronidation by human recombinant UGT1A7
[6] = target: T3, UDP-glucuronosyltransferase 1A9 (Homo sapiens, UniProt O60656); assay: Inhibition of 4-methylumbelliferone glucuronidation by human recombinant UGT1A9
T3 sequence (O60656 whole entry): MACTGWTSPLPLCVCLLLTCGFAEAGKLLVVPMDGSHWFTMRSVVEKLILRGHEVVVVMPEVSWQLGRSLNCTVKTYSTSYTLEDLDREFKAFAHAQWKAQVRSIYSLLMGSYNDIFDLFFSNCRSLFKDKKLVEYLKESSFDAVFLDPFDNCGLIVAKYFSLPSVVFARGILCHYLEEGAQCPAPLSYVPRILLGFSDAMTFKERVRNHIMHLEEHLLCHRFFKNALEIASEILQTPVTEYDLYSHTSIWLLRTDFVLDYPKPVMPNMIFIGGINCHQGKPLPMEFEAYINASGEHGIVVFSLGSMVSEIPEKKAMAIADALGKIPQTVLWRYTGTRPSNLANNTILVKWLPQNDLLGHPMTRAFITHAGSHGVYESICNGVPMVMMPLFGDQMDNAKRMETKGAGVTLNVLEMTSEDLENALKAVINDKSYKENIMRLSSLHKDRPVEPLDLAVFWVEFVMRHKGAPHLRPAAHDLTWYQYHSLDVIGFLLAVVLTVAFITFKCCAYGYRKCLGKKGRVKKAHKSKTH

[7] = Inhibition of AZT glucuronidation by human UGT enzymes from liver microsomes; parameters: species or system Microsome
[8] = Inhibition of acetaminophen glucuronidation by human UGT enzymes from liver microsomes; parameters: species or system Microsome
[9] = target: T4, UDP-glucuronosyltransferase 2B7 (Homo sapiens, UniProt P16662); assay: Inhibition of AZT glucuronidation by human recombinant UGT2B7
T4 sequence (P16662 whole entry): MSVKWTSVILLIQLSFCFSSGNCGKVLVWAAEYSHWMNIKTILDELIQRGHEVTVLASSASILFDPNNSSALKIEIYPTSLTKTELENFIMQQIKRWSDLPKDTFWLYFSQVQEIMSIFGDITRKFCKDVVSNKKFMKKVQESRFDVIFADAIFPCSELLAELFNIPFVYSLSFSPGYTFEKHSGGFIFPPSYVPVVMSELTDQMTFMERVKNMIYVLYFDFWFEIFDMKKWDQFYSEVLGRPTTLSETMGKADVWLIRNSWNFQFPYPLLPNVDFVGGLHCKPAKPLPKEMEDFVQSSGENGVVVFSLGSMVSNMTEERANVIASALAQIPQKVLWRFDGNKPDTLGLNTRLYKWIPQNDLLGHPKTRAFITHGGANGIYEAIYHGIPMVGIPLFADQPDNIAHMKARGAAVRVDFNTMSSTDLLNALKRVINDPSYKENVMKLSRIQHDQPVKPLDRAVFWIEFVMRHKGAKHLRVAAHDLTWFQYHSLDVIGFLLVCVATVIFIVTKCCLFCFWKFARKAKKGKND

UGT2B15 = UGT2B15 (Homo sapiens, UniProt P54855); assay: Inhibition of dihydrotestosterone (assayed at the Km) glucuronidation by human recombinant UGT2B15 (+/- 11% inhibition at 5mM VPA); details: recombinant UGT2B15, probe dihydrotestosterone
UGT1A9 [10] = target: T5, UGT1A9 (Homo sapiens, UniProt O60656); assay: Inhibition of propofol (assayed at the Km) glucuronidation by human recombinant UGT1A9 (+/- 15% inhibition at 5mM VPA); details: recombinant UGT1A9, probe propofol
[11] = target: T6, UDP-glucuronosyltransferase 1A3 (Homo sapiens, UniProt P35503); assay: (§1) Drug glucuronidation reaction catalyzed by human recombinant UGT1A3
T6 sequence (P35503 whole entry): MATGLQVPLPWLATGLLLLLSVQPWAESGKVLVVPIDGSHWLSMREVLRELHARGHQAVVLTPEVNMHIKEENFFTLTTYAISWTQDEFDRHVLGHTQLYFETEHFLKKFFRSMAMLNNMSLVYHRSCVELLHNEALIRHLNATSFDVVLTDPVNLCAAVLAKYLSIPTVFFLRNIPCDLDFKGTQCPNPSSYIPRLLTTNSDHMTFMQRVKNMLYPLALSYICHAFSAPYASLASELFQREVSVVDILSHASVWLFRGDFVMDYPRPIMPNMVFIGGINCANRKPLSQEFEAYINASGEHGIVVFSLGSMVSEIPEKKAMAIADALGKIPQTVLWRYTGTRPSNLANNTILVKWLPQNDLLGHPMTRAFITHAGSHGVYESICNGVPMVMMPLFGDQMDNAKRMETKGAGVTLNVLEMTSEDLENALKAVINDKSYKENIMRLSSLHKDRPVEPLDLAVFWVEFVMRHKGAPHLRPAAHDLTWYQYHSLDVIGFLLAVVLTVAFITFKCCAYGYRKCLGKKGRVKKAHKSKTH

UGT1A3 = UGT1A3 (Homo sapiens, UniProt P35503); assay: as §1; details: recombinant UGT1A3
[12] = target: T3, UDP-glucuronosyltransferase 1A9; assay: (§2) Drug glucuronidation reaction catalyzed by human recombinant UGT1A9
UGT1A9 [13] = target: T5, UGT1A9; assay: as §2; details: recombinant UGT1A9
[14] = target: T4, UDP-glucuronosyltransferase 2B7; assay: (§3) Drug glucuronidation reaction catalyzed by human recombinant UGT2B7
UGT2B7 = target: T7, UGT2B7 (Homo sapiens, UniProt P16662); assay: as §3; details: recombinant UGT2B7
T7 sequence (P16662 whole entry): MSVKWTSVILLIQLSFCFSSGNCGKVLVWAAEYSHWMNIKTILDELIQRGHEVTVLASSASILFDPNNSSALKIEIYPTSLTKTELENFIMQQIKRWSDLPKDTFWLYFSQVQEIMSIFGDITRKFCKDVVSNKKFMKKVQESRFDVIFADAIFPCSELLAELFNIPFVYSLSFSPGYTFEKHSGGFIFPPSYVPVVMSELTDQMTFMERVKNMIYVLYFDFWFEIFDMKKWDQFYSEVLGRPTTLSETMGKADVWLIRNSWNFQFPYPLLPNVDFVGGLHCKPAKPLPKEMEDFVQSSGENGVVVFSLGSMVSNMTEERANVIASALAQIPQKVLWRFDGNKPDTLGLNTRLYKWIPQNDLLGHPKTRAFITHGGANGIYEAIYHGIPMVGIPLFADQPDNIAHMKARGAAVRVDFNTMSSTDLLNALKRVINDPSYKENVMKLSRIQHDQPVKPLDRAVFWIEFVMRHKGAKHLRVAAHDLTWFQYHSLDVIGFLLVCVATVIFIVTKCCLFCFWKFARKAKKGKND

[15] = Inhibition of codeine glucuronidation by human UGT enzymes from liver homogenate; type: tissue-based
[16] = Inhibition of 4-methylumbelliferone glucuronidation by human UGT enzymes from liver microsomes; parameters: species or system Microsome
[17] = Inhibition of ciramadol glucuronidation by human UGT enzymes from liver microsomes; parameters: species or system Microsome
[18] = Inhibition of morphine glucuronidation by human fetal-liver microsomes; parameters: species or system Microsome
[19] = target: UDP-glucuronosyltransferase 2B28 (Homo sapiens, UniProt Q9BY64); assay: Drug glucuronidation reaction catalyzed by human recombinant UGT2B28
[20] = target: T8, UDP-glucuronosyltransferase 1A4 (Homo sapiens, UniProt P22310); assay: (§4) Drug glucuronidation reaction catalyzed by human recombinant UGT1A4
T8 sequence (P22310 whole entry): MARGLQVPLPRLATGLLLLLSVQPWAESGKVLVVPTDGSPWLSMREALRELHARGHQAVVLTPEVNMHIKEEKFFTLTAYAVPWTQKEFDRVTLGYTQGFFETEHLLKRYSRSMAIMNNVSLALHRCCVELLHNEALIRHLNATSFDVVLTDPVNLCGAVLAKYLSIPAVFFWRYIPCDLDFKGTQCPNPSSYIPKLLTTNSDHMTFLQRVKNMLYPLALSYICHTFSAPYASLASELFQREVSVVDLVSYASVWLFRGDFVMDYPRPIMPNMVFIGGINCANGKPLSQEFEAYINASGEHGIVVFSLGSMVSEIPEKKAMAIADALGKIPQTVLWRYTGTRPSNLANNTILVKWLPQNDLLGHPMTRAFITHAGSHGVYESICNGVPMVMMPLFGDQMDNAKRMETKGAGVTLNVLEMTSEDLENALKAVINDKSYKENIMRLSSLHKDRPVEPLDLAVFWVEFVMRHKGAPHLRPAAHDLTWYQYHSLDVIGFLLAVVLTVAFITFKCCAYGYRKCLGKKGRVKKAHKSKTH

UGT1A4 = UGT1A4 (Homo sapiens, UniProt P22310); assay: as §4; details: recombinant UGT1A4
not read = substrate: O=C1Nc2ccc(Cl)cc2C(c2ccccc2)=N[C@H]1O; assay: not read
[21] = substrate: CC(O)/C(=C(\c1ccccc1)c1ccc(OCCN(C)C)cc1)c1ccccc1; assay: (§5) Drug glucuronidation reaction catalyzed by human recombinant UGT2B15
[22] = substrate: CCN(CC)C(=O)/C(C#N)=C/c1cc(O)c(O)c([N+](=O)[O-])c1; assay: as §5
[23] = substrate: CCc1c2c(nc3ccc(O)cc13)-c1cc3c(c(=O)n1C2)COC(=O)[C@]3(O)CC; assay: as §5
[24] = substrate: CS(=O)(=O)c1ccc(C2=C(c3ccccc3)C(=O)OC2O)cc1; assay: as §5
[25] = substrate: C[C@]12CC[C@H](O)C[C@@H]1CC[C@@H]1[C@@H]2CC[C@]2(C)[C@@H](O)CC[C@@H]12; assay: as §5
[26] = substrate: Cc1ccc(C(=O)c2cc(O)c(O)c([N+](=O)[O-])c2)cc1; assay: as §5

T1 sequence (P19224 whole entry): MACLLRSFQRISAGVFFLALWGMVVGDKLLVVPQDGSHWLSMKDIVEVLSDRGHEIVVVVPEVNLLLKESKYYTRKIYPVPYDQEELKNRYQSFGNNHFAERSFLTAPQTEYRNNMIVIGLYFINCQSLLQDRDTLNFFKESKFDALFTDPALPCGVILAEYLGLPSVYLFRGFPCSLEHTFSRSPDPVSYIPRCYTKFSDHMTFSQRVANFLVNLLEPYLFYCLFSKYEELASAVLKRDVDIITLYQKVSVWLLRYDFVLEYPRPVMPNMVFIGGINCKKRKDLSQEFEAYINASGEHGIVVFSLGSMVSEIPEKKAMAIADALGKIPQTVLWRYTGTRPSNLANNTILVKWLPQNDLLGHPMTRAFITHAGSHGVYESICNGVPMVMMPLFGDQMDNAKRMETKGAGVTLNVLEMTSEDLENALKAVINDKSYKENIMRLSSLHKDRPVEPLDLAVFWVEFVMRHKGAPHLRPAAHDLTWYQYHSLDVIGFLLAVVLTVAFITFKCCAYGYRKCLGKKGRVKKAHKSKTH
Chain of UDP-glucuronosyltransferase 1A10 (Q9HAW8 whole entry): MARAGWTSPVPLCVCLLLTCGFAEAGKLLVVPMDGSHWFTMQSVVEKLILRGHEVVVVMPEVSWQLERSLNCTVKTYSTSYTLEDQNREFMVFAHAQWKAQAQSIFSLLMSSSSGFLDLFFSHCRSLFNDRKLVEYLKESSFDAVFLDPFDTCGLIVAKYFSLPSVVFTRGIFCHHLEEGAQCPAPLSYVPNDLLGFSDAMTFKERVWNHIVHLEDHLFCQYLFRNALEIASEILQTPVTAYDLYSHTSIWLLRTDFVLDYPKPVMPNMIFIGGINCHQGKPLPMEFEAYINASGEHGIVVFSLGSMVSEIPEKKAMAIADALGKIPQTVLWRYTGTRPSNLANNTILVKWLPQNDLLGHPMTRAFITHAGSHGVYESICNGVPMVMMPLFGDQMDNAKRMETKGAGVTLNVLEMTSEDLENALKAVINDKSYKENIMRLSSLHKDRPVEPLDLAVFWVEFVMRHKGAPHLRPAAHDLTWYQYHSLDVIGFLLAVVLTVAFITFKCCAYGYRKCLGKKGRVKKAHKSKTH
Chain of UDP-glucuronosyltransferase 1A7 (Q9HAW7 whole entry): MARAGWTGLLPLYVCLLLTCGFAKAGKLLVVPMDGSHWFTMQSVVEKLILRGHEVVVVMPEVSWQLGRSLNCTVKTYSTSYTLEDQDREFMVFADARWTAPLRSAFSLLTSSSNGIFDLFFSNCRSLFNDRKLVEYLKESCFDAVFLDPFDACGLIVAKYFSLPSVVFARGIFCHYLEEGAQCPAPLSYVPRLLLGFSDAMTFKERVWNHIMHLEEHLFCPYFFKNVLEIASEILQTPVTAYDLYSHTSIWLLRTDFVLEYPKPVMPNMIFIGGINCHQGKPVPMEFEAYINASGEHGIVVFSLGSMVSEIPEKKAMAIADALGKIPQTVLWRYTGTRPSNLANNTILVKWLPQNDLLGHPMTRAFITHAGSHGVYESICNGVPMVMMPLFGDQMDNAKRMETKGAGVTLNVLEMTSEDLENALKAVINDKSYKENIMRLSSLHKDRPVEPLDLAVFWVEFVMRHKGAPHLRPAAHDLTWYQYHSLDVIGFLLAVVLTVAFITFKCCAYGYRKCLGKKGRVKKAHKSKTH
Chain of UDP-glucuronosyltransferase 2B28 (Q9BY64 whole entry): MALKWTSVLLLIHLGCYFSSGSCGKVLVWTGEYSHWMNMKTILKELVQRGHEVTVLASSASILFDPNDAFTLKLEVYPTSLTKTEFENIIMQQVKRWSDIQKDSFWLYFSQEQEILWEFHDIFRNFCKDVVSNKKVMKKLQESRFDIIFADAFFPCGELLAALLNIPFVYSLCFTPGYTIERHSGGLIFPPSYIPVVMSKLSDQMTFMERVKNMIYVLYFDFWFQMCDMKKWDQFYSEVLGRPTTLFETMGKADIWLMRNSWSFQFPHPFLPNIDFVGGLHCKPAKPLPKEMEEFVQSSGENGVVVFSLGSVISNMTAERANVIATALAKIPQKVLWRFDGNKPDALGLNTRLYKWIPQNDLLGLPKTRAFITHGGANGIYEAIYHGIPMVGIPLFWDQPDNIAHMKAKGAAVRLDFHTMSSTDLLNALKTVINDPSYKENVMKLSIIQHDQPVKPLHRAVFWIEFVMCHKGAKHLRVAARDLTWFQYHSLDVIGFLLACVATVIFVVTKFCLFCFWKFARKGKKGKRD

CC(=O)Nc1ccc(O)cc1 [ACETAMINOPHEN]
Vmax [1]: 100 pmol/min/mg protein

CCCN(CCC)S(=O)(=O)c1ccc(C(=O)O)cc1 [PROBENECID]
Ki [2]: 221 µM | Ki [3]: 231 µM | Ki [4]: 1430 µM | Ki [5]: 96 µM | Ki [6]: 2450 µM | Ki [7]: 1600 µM | Ki [8]: 1100 µM

CCCC(CCC)C(=O)O [VALPROIC ACID]
Ki [9]: 1600 µM | inhibition at 5000 µM (UGT2B15): 41% | inhibition at 5000 µM (UGT1A9 [10]): 46%

O=C(O)Cc1ccccc1Nc1c(Cl)cccc1Cl [DICLOFENAC]
Vmax [11]: 142 pmol/min/mg protein | Km (UGT1A3): 12 µM | Vmax [12]: 166 pmol/min/mg protein | Km (UGT1A9 [13]): 16 µM | Km [14]: 25 µM | Km (UGT2B7): 13 µM | Ki [2]: 52 µM | Ki [3]: 28 µM | Ki [5]: 19 µM | Ki [6]: 11 µM | Ki [15]: 7.9 µM

O=C1Nc2ccc(Cl)cc2C(c2ccccc2)=NC1O (stereo unspecified) [OXAZEPAM]
Ki [16]: 188 µM | Ki [7]: 580 µM | Ki [17]: 120 µM | Ki [18]: 200 µM and 270 µM

C[C@]12CC[C@@H]3c4ccc(O)cc4CC[C@H]3[C@@H]1CC[C@@H]2O [ESTRADIOL]
Vmax [19]: < 1 pmol/min/mg protein

Cc1cc2c(s1)Nc1ccccc1N=C2N1CCN(C)CC1 [OLANZAPINE]
Vmax [20]: 2370 pmol/min/mg protein | Km (UGT1A4): 227 µM

B1: UDP-glucuronosyltransferase 2B15 (Homo sapiens) (protein)
chain: MSLKWTSVFLLIQLSCYFSSGSCGKVLVWPTEYSHWINMKTILEELVQRGHEVTVLTSSASTLVNASKSSAIKLEVYPTSLTKNYLEDSLLKILDRWIYGVSKNTFWSYFSQLQELCWEYYDYSNKLCKDAVLNKKLMMKLQESKFDVILADALNPCGELLAELFNIPFLYSLRFSVGYTFEKNGGGFLFPPSYVPVVMSELSDQMIFMERIKNMIHMLYFDFWFQIYDLKKWDQFYSEVLGRPTTLFETMGKAEMWLIRTYWDFEFPRPFLPNVDFVGGLHCKPAKPLPKEMEEFVQSSGENGIVVFSLGSMISNMSEESANMIASALAQIPQKVLWRFDGKKPNTLGSNTRLYKWLPQNDLLGHPKTKAFITHGGTNGIYEAIYHGIPMVGIPLFADQHDNIAHMKAKGAALSVDIRTMSSRDLLNALKSVINDPVYKENVMKLSRIHHDQPMKPLDRAVFWIEFVMRHKGAKHLRVAAHNLTWIQYHSLDVIAFLLACVATVIFIITKFCLFCFRKLAKKGKKKKRD
Km (not read): 35 µM and 29 µM | Km [21]: 7 µM and 18 µM | Km [22]: 322 µM | Vmax [22]: 2.4e-05 µmol/min/mg | Km [23]: 186 µM | Vmax [23]: 2e-06 µmol/min/mg | Km [24]: 286 µM | Vmax [24]: 1.6e-05 µmol/min/mg | Km [25]: 15 µM | Vmax [25]: 0.00098 µmol/min/mg | Km [26]: 429 µM | Vmax [26]: 2.4e-05 µmol/min/mg
